Reference: US11591404B2, “Treatment of cancer using a CD123 chimeric antigen receptor” (Novartis AG, priority 2014, dated 2023)
Entries after “also recorded” stand apart in the source; their conditions may differ.

What was measured:
[1] = test system: huCART19 cells cultured with Nalm-6; experiment: CART proliferation in 4 day co-culture with RAD001; assay type: cell-based, human; details: 0.0032 and 0.016 nM RAD001
Description: To evaluate the functionality of CARTs, the T cells are thawed and counted, and viability is assessed by Cellometer. The number of CAR-positive cells in each culture is normalized using non-transduced T cells (UTD). The impact of RAD001 on CARTs was tested in titrations with RAD001, starting at 50 nM. The target cell line used in all co-culture experiments is Nalm-6, a human pre-B cell acute lymphoblastic leukemia (ALL) cell line expressing CD19 and transduced to express luciferase.
For measuring the proliferation of CARTs, T cells are cultured with target cells at a ratio of 1:1. The assay is run for 4 days, when cells are stained for CD3, CD4, CD8 and CAR expression. The number of T cells is assessed by flow cytometry using counting beads as reference.

[2] = test system: humanized CD19 CART cells; experiment: In vivo proliferation of humanized CD19 CART cells with and without RAD001 dosing; details: RAD001 0.003 mg/kg daily with huCTL019
Description: Circles denote PBS; squares denote huCTL019; triangles denote huCTL019 with 3 mg/kg RAD001; inverted triangles denote huCTL019 with 0.3 mg/kg RAD001; diamonds denote huCTL019 with 0.03 mg/kg RAD001; and circles denote huCTL019 with 0.003 mg/kg RAD001.

[3] = test system: CAR-expressing, transduced T cells; experiment: Proliferation of CARTs co-cultured with Nalm-6 cells in the presence of RAD001, 4 days; assay type: cell-based; details: low doses of RAD001, cell culture, 4 days of co-culture
Description: CARTs were co-cultured with Nalm-6 cells in the presence of different concentrations of RAD001. The number of CAR-positive CD3-positive T cells (black) and total T cells (gray) was assessed after 4 days of co-culture.

huCAR19 CAR T cells = experiment: CAR T cell expansion in vivo with RAD001 (FACS); design: species or system NSG mice; details: lowest doses of RAD001
Description: CAR T cell dosing: Mice were administered 5×10^6 CAR T cells 7 days after tumor implantation. Cells were partially thawed in a 37 degree Celsius water bath and then completely thawed by the addition of 1 ml of cold sterile PBS to the tube containing the cells. The thawed cells were transferred to a 15 ml falcon tube and adjusted to a final volume of 10 mls with PBS. The cells were washed twice at 1000 rpm for 10 minutes each time and then counted on a hemocytometer. T cells were then resuspended at a concentration of 50×10^6 CAR T cells per ml of cold PBS and kept on ice until the mice were dosed. The mice were injected intravenously via the tail vein with 100 μl of the CAR T cells for a dose of 5×10^6 CAR T cells per mouse. Eight mice per group were treated either with 100 μl of PBS alone (PBS), or humanized CD19 CAR T cells.
(§1) RAD001 dosing: A concentrated micro-emulsion of 50 mg equal to 1 mg RAD001 was formulated and then resuspended in D5W (dextrose 5% in water) at the time of dosing. Mice were orally dosed daily (via oral gavage) with 200 μl of the desired doses of RAD001.
Based on these doses, huCAR19 CAR T cells were dosed with and without RAD001 to determine the proliferative ability of these cells. The highest dose used was 3 mg/kg based on the levels of RAD001 in the blood 24 hours after dosing. […] Mice were monitored via FACS for T cell expansion.

[4] = PK analysis of RAD001 in tumor bearing mice; assay type: in vivo, NSG mice
Description: as §1
PK analysis: Mice were dosed daily with RAD001 starting 7 days post tumor implantation. Dosing groups were as follows: 0.3 mg/kg, 1 mg/kg, 3 mg/kg, and 10 mg/kg. Mice were bled on days 0 and 14 following the first and last dose of RAD001, at the following time points for PK analysis: 15 minutes, 30 minutes, 1 hour, 2 hours, 4 hours, 8 hours, 12 hours, and 24 hours.

NALM6-luc tumors = experiment: NALM6-luc tumor growth under daily oral RAD001; assay type: in vivo, NSG mice; details: daily oral dosing of RAD001 alone
Description: NALM6-luc cells: The NALM6 human acute lymphoblastic leukemia (ALL) cell line was developed from the peripheral blood of a patient with relapsed ALL. The cells were then tagged with firefly luciferase. These suspension cells grow in RPMI supplemented with 10% heat inactivated fetal bovine serum.
Mice: 6 week old NSG (NOD.Cg-Prkdc^scidIl2rg^tmIWjl/SzJ) mice were received from the Jackson Laboratory (stock number 005557).
Tumor implantation: NALM6-luc cells were grown and expanded in vitro in RPMI supplemented with 10% heat inactivated fetal bovine serum. The cells were then transferred to a 15 ml conical tube and washed twice with cold sterile PBS. NALM6-luc cells were then counted and resuspended at a concentration of 10×10^6 cells per milliliter of PBS. The cells were placed on ice and immediately (within one hour) implanted in the mice. NALM6-luc cells were injected intravenously via the tail vein in a 100 μl volume, for a total of 1×10^6 cells per mouse.
as §1

CART123 P2A CD20 cells = experiment: Rituximab complement dependent cytotoxicity (15% rabbit complement); assay type: cell-based
Description: The mechanism by which the CART123P2ACD20 cell depletion is mediated was investigated. CART123 P2A CD20 cells were incubated with rituximab at different concentrations 0 μg/ml, 1 μg/ml, 10 μg/ml and 100 μg/ml, in the presence of 15% rabbit complement. […] CART123 P2A CD20 cell depletion is mediated by complement dependent cytotoxicity.

CART123P2A CD20 cells = experiment: Rituximab-mediated cytotoxicity, T cell depletion; assay type: cell-based; details: 100 ug/ml, 48 hours of incubation
Description: Rituximab-mediated cytotoxicity was next assessed for the CART123 P2A CD20 cells. CART123 and CART123 P2A CD20 were incubated with Rituximab at various concentrations, 0 μg/ml, 1 μg/ml, 10 μg/ml and 100 μg/ml. Cells were harvested at 0, 4, 12, and 48 hours, and stained for CD3. The percentage of T cell depletion was computed.

[5] = test system: luciferase-expressing human AML cell lines (MOLM14, MOLM13, U937) or primary AML specimens; experiment: Human AML xenograft models, T cell termination strategies; assay type: in vivo, mice; details: for elimination of CD123-redirected CAR T cells: alemtuzumab 1 or 5 mg/kg IP, rituximab 10 mg/kg IP; for AML proliferation, antibody alone: non-CART123-treated xenograft models vs AML-only controls
Source text: Three termination strategies in human AML xenograft models were examined: (1) T cell ablation with the anti-CD52 antibody alemtuzumab after treatment with 1×10^5-1×10^6 T cells lentivirally-transduced with anti-CD123-41BB-CD3zeta CART123, (2) T cell ablation with the anti-CD20 antibody rituximab after treatment with 1×10^5-1×10^6 CART123 engineered to co-express CD20 (CART123/CD20), and (3) treatment with “biodegradable” anti-CD123 mRNA-electroporated CAR T cells (RNA-CART123). Mice engrafted with luciferase-expressing human AML cell lines (MOLM14, MOLM13, U937) or primary AML specimens (n=3) were treated with CD123-redirected CAR T cells as above. The CD123 CAR construct utilized for this experiment is the 1172 construct (SEQ ID NO: 707), and were administered to the mice at week 1. For T cell depletion studies, alemtuzumab 1 or 5 mg/kg was injected intraperitoneally (IP) at week 2, week 3, or week 4 (e.g., 1, 2, or 3 weeks post-CART123) to determine optimal dosing and timing of T cell ablation. In subsequent studies, rituximab 10 mg/kg was injected IP 4 weeks after CART123/CD20, or 1×10^7 RNA-CART123 was injected intravenously at 5, 9, and 16 days after AML engraftment. Mice were followed by weekly bioluminescent imaging and/or quantitative flow cytometry analyses of blood, spleen, and/or bone marrow.

AML290 cells = experiment: Pediatric patient-derived xenograft model; assay type: in vivo, mice
Description: Alemtuzumab treatment was also examined in a second in vivo model, a pediatric patient-derived xenograft model. In this model, mice were injected with AML290 cells. Six weeks after AML engraftment, the mice were administered saline, untransduced T cells, or CART123 cells (represented at week 0). Alemtuzumab was administered at 5 mg/kg to a subset of the mice receiving CART123 cells at week 4. […] Analysis of AML present in different organs of the xenografts after CART123 dosing was determined by flow cytometry.

r/r B-ALL = details: cited from earlier work

For CO[C@H]1C[C@@H]2CC[C@@H](C)[C@@](O)(O2)C(=O)C(=O)N2CCCC[C@H]2C(=O)O[C@H]([C@H](C)C[C@@H]2CC[C@@H](OCCO)[C@H](OC)C2)CC(=O)[C@H](C)/C=C(\C)[C@@H](O)[C@@H](OC)C(=O)[C@H](C)C[C@H](C)/C=C/C=C/C=C/1C [RAD001, (1R,9S,12S,15R,16E,18R,19R,21R,23 S,24E,26E,28E,30S,32S,35R)-1,18-dihydroxy-12-{(1R)-2-[(1S,3R,4R)-4-(2-hydroxyethoxy)-3-methoxycyclohexyl]-1-methylethyl}-19,30-dimethoxy-15,17,21,23,29,35-hexamethyl-11,36-dioxa-4-aza-tricyclo[30.3.1.04,9]hexatriaconta-16,24,26,28-tetraene-2,3,10,14,20-pentaone], the “proliferation of huCART19 cells” value [1] was “proliferation was higher than observed without the addition of RAD001”, the “CART cell proliferation in vivo” value [2] was “enhancement in CART cell proliferation” and the “proliferation of CAR-expressing, transduced T cells” value [3] was “enhanced”. The “proliferation of the CAR T cells in vivo” value (huCAR19 CAR T cells) was “enhanced proliferation of the CAR T cells”, the “concentration of RAD001” value ([4]; 24 hours after the final dose) was “above 10 nM” and the concentration at 24 h ([4]; NSG, mouse, blood, oral, 24 hours after dosing, 0.3 mg/kg, day 0 and day 14, read-out: RAD001 concentrations in the blood) was > 10 nM. For the same compound, the “stability in the blood” value ([4]; tumor bearing mice) was “fairly stable in the blood” and the “growth of NALM6-luc tumors” value (NALM6-luc tumors) was “did not have an impact on the growth of NALM6-luc tumors”.

For Rituximab: anti-CD20 antibody, the “cell depletion with complement” value (CART123 P2A CD20 cells; Rituximab 100 ug/ml) was “depletion of the majority of CART123 P2A CD20 cells after 4 hours of incubation”, the “cell depletion with complement” value (CART123 P2A CD20 cells; rituximab 1 ug/ml or 10 ug/ml) was “depletion of the majority of CART123 P2A CD20 cells after 12 hours of incubation” and the T cell depletion (CART123P2A CD20 cells) was “direct cytotoxicity”. The “elimination of CD123-redirected CAR T cells” value [5] was “rapidly eliminated T cells while preserving leukemia remission; also recorded: completely eliminated CD123-redirected CAR T cells” and the “AML proliferation, antibody alone” value [5] was “did not inhibit AML proliferation”.

For alemtuzumab: anti-CD52 antibody, the “AML cells in spleen and bone marrow (flow cytometry)” value (AML290 cells; AML290) was “sustained ablation of AML cells in the spleen”, the “tumor progression / remission” value (AML290 cells; AML290) was “remained in remission” and the “elimination of CART123 T cells in the peripheral blood” value (AML290 cells; alemtuzumab 5 mg/kg at week 4) was “completely eliminate CART123 T cells in the peripheral blood”. For the same compound, the “elimination of CD123-redirected CAR T cells” value [5] was “rapidly eliminated CART123 cells”, the “elimination of CD123-redirected CAR T cells” value ([5]; listed as Alemtuzumab) was “completely eliminated CD123-redirected CAR T cells” and the “overall survival by timing of ablation” value ([5]; alemtuzumab at week 3 or week 4 vs week 2) was “improved survival”. For the same compound, the “AML proliferation, antibody alone” value [5] was “did not inhibit AML proliferation”.

In the case of “blinatumomab: bi-specific anti-CD19/CD3 antibody”, the “share of relapses that are CD19-negative” value (r/r B-ALL) is given as “about 30%”.
